Source: US11420934B2, “PPAR agonists” (Salk Institute for Biological Studies, priority 2013, dated 2022)
Where two headings read alike, the source gives them in different places.

Key:
[1] = target: T1, PPARδ (Homo sapiens, UniProt Q03181); assay: Nuclear Hormone Receptor (NHR) protein interaction assay (PathHunter), agonist format; assay type: cell-based
T1 construct: expressed in transfected cells; host or cells: PathHunter NHR cell lines
T1 sequence (Q03181 1-441): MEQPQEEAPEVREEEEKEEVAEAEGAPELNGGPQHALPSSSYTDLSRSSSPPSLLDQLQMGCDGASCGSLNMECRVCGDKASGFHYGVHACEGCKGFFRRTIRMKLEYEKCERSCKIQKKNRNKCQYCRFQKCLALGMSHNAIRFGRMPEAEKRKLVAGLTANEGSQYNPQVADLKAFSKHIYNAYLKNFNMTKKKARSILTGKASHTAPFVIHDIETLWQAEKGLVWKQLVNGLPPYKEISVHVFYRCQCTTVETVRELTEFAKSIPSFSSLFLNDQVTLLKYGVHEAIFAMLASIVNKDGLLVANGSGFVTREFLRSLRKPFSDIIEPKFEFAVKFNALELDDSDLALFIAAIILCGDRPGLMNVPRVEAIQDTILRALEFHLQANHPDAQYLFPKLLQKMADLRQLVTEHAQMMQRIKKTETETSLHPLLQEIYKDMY
Procedure: PathHunter NHR cell lines were expanded from freezer stocks according to standard procedures. Cells were seeded in a total volume of 20 μL into white walled, 384-well microplates and incubated at 37° C. for the appropriate time prior to testing. Assay media contained charcoal-dextran filtered serum to reduce the level of hormones present.
For agonist determination, cells were incubated with sample to induce response. Intermediate dilution of sample stocks was performed to generate 5× sample in assay buffer. 5 μL of 5× sample was added to cells and incubated at 37° C. or room temperature for 3-16 hours. Final assay vehicle concentration was 1%.
Microplates were read following signal generation with a PerkinElmer Envision™ instrument for chemiluminescent signal detection.
Compound activity was analyzed using CBIS data analysis suite (ChemInnovation, CA). For agonist mode assays, percentage activity was calculated using the following formula: % Activity=100%×(mean RLU of test sample−mean RLU of vehicle control)/(mean MAX control ligand−mean RLU of vehicle control).

[2] = tested on: AKO mice; assay: GW treatment in mouse model of ALD (AKO mice); assay type: in vivo
Description: ALD is a rare genetic disorder caused by defects in peroxisomal oxidation of very long-chain fatty acids (VLCFAs), resulting in systemic accumulation of VLCFAs, which causes tissue defects mainly in the central nervous system and the adrenal glands. The majority of VLCFAs in the body are endogenously synthesized from long-chain fatty acids (LCFAs). Therefore, one potential way to prevent VLCFA accumulation in ALD is by inducing mitochondrial LCFA oxidation to reduce the availability of LCFAs for VLCFA biosynthesis. In order to test this, a previously described mouse model of ALD was used, in which the X-linked adrenoleukodystrophy gene abcd1 was systemically ablated and the knockout (AKO) mice faithfully recapitulated the abnormal VLCFA accumulation phenotype seen in ALD patients.
3-month-old AKO mice were treated with or without GW and their tissues collected for free FA analysis using GC/MS.

[3] = Pharmacokinetics in CD-1 mice; assay type: in vivo
Procedure: (§1) In this example, the PK profile of several PPARδ agonists disclosed herein in male CD-1 mice or Wistar rats was determined. Similar methods can be used to analyze other compounds provided herein.
(§2) (quantity sufficient i.e. made up to a final volume of 100% with water). All compounds were separately administered to CD-1 mice at 3 mg/kg iv or 10 mg/kg po.
(§3) The concentration of the compound in plasma was determined, as illustrated in FIGS. 9A-9E.

[4] = Pharmacokinetics in Wistar rats; assay type: in vivo; conditions: male Wistar rats
Procedure: as §1, §2, §3

[5] = assay type: in vitro ADME
[6] = tested on: thermal injury to the TA; assay: Muscle regeneration after thermal (freeze burn) injury to the TA, oral GW501516; assay type: in vivo, C57BL6J mice
Procedure: A stainless steel […] (Mettler-Toledo) equilibrated to the temperature of dry ice was placed directly on the exposed TA for 10 seconds. Following the thermal injury, incision was closed using VetBond (3M). All injury procedures were performed on the left leg, and the right leg was used as control.
Sterile 1% w/v Evans Blue dye in PBS was intraperitoneally injected at 1% volume relative to the body mass of an animal. 7 hours after the injection, injured TA muscles were harvested and snap-frozen by isopentane quenching in liquid nitrogen. Frozen sections were cut in 10 μm thickness, fixed in ice-cold acetone, dipped in xylene and mounted with DPX. Proportion of the stained area over the total area was measured using ImageJ software.
50 mg/kg body weight of BrdU (Sigma) was injected intraperitoneally as solution of 10 mg/mL BrdU in saline. TA muscles were harvested at 7 days after injury and processed for paraffin sections as described above. BrdU incorporation was visualized using the BrdU Labeling and Detection Kit I (Roche) and BrdU+ nuclei were counted and represented as a proportion of total nuclei in a field.
Whole or partial tissues were homogenized by Polytron probe homogenizer in Trizol reagent (Invitrogen). Total RNA was extracted from the homogenates according to the manufacturer's protocol. 1 μg of DNase-treated total RNA was reverse transcribed using Superscript II Reverse Transcriptase (Invitrogen) according to the manufacturer's instructions. cDNAs were diluted 1/40 with ddH2O and used as templates in RT-QPCR reactions with SYBRGreenER qPCR SuperMix detection system (Invitrogen). Samples were prepared in technical triplicates and relative mRNA levels were calculated by using the standard curve methodology and normalized against GAPDH mRNA levels in the same samples.

[7] = tested on: FGF1a promoter; assay: Luciferase reporter assay of FGF1a promoter co-transfected with PPARδ; assay type: cell-based; conditions: with ligand
[8] = Tables 7-16, read-out: NHR protein interaction assay, EC50 (nM) for PPARδ

Structure (SMILES) | EC50 [1, 8] [nM] | EC50 [1] [nM] | also measured
CC(C)N(Cc1ccccc1OCCCCCC(=O)O)C(=O)c1ccc(C#CC2CC2)cc1 [Compd 245] | 10.5 | – | –
CC(C)N(Cc1ccccc1OCCCCCC(=O)O)C(=O)c1ccc(Cl)cc1 [Compd 125] | 291 | – | –
COc1ccc(C(=O)N(Cc2ccccc2OCCCCCC(=O)O)C(C)C)cc1 [compound 126] | 1300 | – | –
Cc1ccc(OCCCCCC(=O)O)c(CN(C(=O)c2ccc(-c3ccco3)cc2)C(C)C)c1 [compound 203] | 7.1 | – | –
O=C(O)CCCCCOc1ccccc1CNC(=O)c1ccc(-c2ccco2)cc1 [compound 179] | – | 485 | –
CC(C)N(Cc1ccccc1OCCCCCC(=O)O)C(=O)c1ccc(-c2ccco2)cn1 [compound 153] | – | 206 | –
Cc1cc(SCc2sc(-c3ccc(C(F)(F)F)cc3)nc2C)ccc1OCC(=O)O [GW] | – | – | liver C26:0 ([2]; 8 weeks of GW treatment): cleared in most GW-treated animals; levels of VLCFAs (C22:0, C23:0, C24:0, C26:0) in AKO brain and liver ([2]; 8 weeks of GW treatment, GC/MS): significantly reduced; expression of mitochondrial FA oxidation genes (Cpt1a, 1b, Slc25a20, Acadl) in AKO liver and skeletal muscle ([2]; GW treatment): dramatically induced; saturated LCFAs C12:0 to C22:0 and total FAs in liver and muscle ([2]; GW treatment): significantly reduced
CC(C)N(Cc1ccccc1OCCCCCC(=O)O)C(=O)c1ccc(-c2ccco2)nc1 [compound 155] | – | 26.1 | –
Cc1cc(SCc2sc(-c3ccc(C(F)(F)F)cc3)nc2C)ccc1OCC(=O)O [GW501516] | – | – | Kel ([3]; 3 mg/Kg i.v.): 0.11 h⁻¹; F ([3]; 10 mg/Kg p.o.): 82.1%; Kel ([4]; 3 mg/Kg i.v.): 0.09 h⁻¹; F ([4]; 10 mg/Kg p.o.): ~100%; % Parent remained at 15 min, MLM [5]: 93/76%; % Parent remained at 60 min, MLM [5]: 93/76%; Evans Blue dye uptake, proportion of muscle cross sectional area (CSA) stained ([6]; 5 mg/kg orally, 4 days prior to and 5 days after injury, 5 days after the injury, vehicle 7.6%): 4.9%; expression of inflammatory marker genes by QPCR ([6]; 3 days after the injury): significantly reduced; reduction in the proportion of stained area ([6]; 5 days after the injury, versus vehicle): 34.7%; PPARδ target genes (PDK4, CPT1b, catalase) expression in TA by QPCR ([6]; 9 day treatment): Up-regulation; number of quiescent satellite cells ([6]; after 9 days or 4 weeks of ligand treatment): an increase in the number of quiescent satellite cells was not observed; induction of FGF1a (luciferase reporter) [7]: induction of FGF1a
CC(C)N(Cc1ccccc1OCCCOCC(=O)O)C(=O)c1ccc(-c2ccco2)cc1 [compound 221] | – | 1300 | –
CC(C)N(Cc1ccccc1OCCCCCC(=O)O)C(=O)c1ccc(OC2CC2)cc1 [compound 134] | – | > 10000 | –
CC(=O)c1ccc(C(=O)N(Cc2ccccc2OCCCCCC(=O)O)C(C)C)cc1 [compound 129] | 5070 | – | –
O=C(O)CCCCCOc1ccccc1CN(Cc1ccccc1)C(=O)c1ccc(-c2ccco2)cc1 [compound 247] | 18.8 | – | –
CC(C)N(Cc1cc(C#N)ccc1OCCCCCC(=O)O)C(=O)c1ccc(-c2ccco2)cc1 [compound 205] | – | 224 | –
CC(C)N(Cc1ccccc1OCCCCCC(=O)O)C(=O)c1ccc(N2CCCC2)cc1 [compound 136] | 352 | – | –
O=C(O)CCCCCOc1ccccc1CN(CC(F)(F)F)C(=O)c1ccc(-c2ccco2)cc1 [compound 177] | – | 12.1 | –
Cc1ccc(C(=O)N(Cc2ccccc2OCCCCCC(=O)O)C(C)C)cc1 [Compd 131] | 1610 | – | –

Structure (SMILES) | EC50 [1, 8] [nM] | EC50 [1] [nM] | also measured
CC(C)N(C(=O)Cc1ccccc1OCCCCCC(=O)O)c1ccc(-c2ccco2)cc1 [compound 158] | – | > 10000 | –
CC(C)N(Cc1ccccc1OCCCCCC(=O)O)C(=O)c1ccc(C#N)cc1 [compound 151] | 894 | – | –
CC(C)N(Cc1ccccc1OCCCCCC(=O)O)C(=O)c1ccc(S(C)(=O)=O)cc1 [compound 130] | – | > 10000 | –
CC(C)N(Cc1cc(F)ccc1OCCCCCC(=O)O)C(=O)c1ccc(-c2ccco2)cc1 [compound 204] | 24.6 | – | –
CN(Cc1ccccc1OCCCCCC(=O)O)C(=O)c1ccc(C#CC2CC2)cc1 [compound 248] | 21.1 | – | –
CC(C)N(Cc1cc(Br)ccc1OCCCCCC(=O)O)C(=O)c1ccc(-c2ccco2)cc1 [compound 202] | 7.3 | – | –
CC(C)N(Cc1ccccc1OCCCCc1nn[nH]n1)C(=O)c1ccc(-c2ccco2)cc1 [compound 219] | – | 338 | –
COc1ccc(OCCCCCC(=O)O)c(CN(C(=O)c2ccc(-c3ccco3)cc2)C(C)C)c1 [compound 206] | 5.1 | – | –
CC(C)N(Cc1ccccc1OCCCCCC(=O)O)C(=O)c1ccc(N(C)C)cc1 [Compd 128] | 5390 | – | –
CC(C)N(Cc1ccccc1OCCCCCC(=O)O)C(=O)c1ccc(OC(F)(F)F)cc1 [compound 127] | 44.6 | – | –
CC(C)N(Cc1ccccc1OCCCCCC(=O)O)C(=O)c1cnc(-c2ccco2)s1 [compound 156] | – | 143 | –
COCCN(Cc1ccccc1OCCCCCC(=O)O)C(=O)c1ccc(-c2ccco2)cc1 [compound 178] | – | 79.4 | –
CC(C)N(Cc1ccccc1OCCCCCC(=O)O)S(=O)(=O)c1ccc(-c2ccco2)cc1 [compound 152] | – | > 10000 | –
CC(C)N(Cc1ccc(-c2ccco2)cc1)C(=O)c1ccccc1OCCCCCC(=O)O [compound 157] | – | > 10000 | –
CC(C)N(Cc1ccccc1OCCCCCC(=O)O)C(=O)c1ccc(F)cc1 [compound 132] | 2180 | – | –
CC(C)N(Cc1ccccc1OCCCCCCC(=O)O)C(=O)c1ccc(-c2ccco2)cc1 [compound 220] | 512 | – | –
CC(C)N(Cc1cccnc1OCCCCCC(=O)O)C(=O)c1ccc(-c2ccco2)cc1 [compound 207] | – | 19.4 | –
